“Also recorded” adds a separate entry of the source.
How the values were obtained:
VZV [1] = assay: SCID-Hu mouse model of VZV replication, oral dose range; format: in vivo, varicella-zoster virus
Procedure: SCID-hu mice with human skin xenografts were infected intradermally with VZV and treated orally twice daily with vehicle, PFA (positive control), or N-MCT at 5, 10, 20, 25, 50, or 100 mg/kg/day. Virus spread was measured daily by in vivo bioluminescence imaging (IVIS). […] The results were analyzed for statistical significance by ANOVA and Dunnett's post hoc test of multiple comparisons (GraphPad Prism).

VZV [2] = assay: Skin organ culture topical Assay 2: delayed treatment; format: cell-based, varicella-zoster virus
Procedure: (§1) Place 36 mL deionized sterile water into small beaker with stir bar. Slowly waft 900 mg of carbopol (980 NF, Lot # CCONLCC013, Lubrizol Corp) into water, avoiding clumps. Add equal volume N-MCT in 20% hydroxypropyl-β-cyclodextrin (Sigma) at 2× to reach the desired concentration. Add 2 drops NaOH (18% solution) to attain a pH near 5.0. Store at 4° C. The 0.5% cidofovir gel was made in a similar manner except that cidofovir was dissolved in water. The DMSO vehicle was prepared by adding a 2% DMSO solution in water to the carbopol suspension at a 1:1 ratio. Hydroxypropyl-β-cyclodextrin (HPBCD) was prepared by mixing 5.0 g with 20 mL sterile water. Stock solution of N-MCT was prepared by dissolving 90 mg N-MCT in 9 mL 20% HPBCD and sonicating for 1 min.
Human fetal skin was purchased from ABR and delivered by overnight courier on wet ice. The tissue was cleaned, disinfected in betadine and 70% ethanol, then cut into pieces approximately 1-cm^2. Each piece was inoculated with VZV-BAC-Luc strain that expresses firefly luciferase. Approximately 3 hours after inoculation, the pieces of skin were placed in NetWells above tissue culture medium and incubated overnight. The next day (Day 1) each piece of skin was soaked in D-luciferin for 45 min, and then scanned in the IVIS-50 instrument to measure Total Flux, which is a correlate of VZV pfu. The drug treatment began on Day 1 or later by spreading an aqueous gel (carbopol) containing N-MCT at concentrations of 0.05, 0.5, or 5% (see Assay 1 in Table 4 below). One group of skin was treated with cidofovir ([…] in carbopol gel) for a positive control. Each group contained 4-6 pieces of skin. The drug was applied daily until Day 5 (or other intervals), and then the skin pieces were scanned by IVIS to determine virus yield. […] The results were analyzed for statistical significance by ANOVA and Dunnett's post hoc test of multiple comparisons (GraphPad Prism).
This assay differs from Assay 1 in that the Vehicle was prepared with 10% HPBCD, which is the solvent for the N-MCT. Refer to Assay #2 in Table 4 above. Three groups were treated on Days 1-4 and scanned on Day 5, which is the typical assay protocol. Two groups were treated after a delay of several days, which more closely reflects a clinical scenario of zoster. All treated groups received the same preparation of 0.5% N-MCT in carbopol with 10% HPBCD. VZV yield was reduced in the Vehicle group during the treatment phase, and then rebounded. This was likely due to the effects of HPBCD, which has known antiviral properties. […] In contrast, VZV yield increased until Day 5 in the group that received no treatment until after this scan. The difference between this group and the Vehicle group was notable, since they were expected to be similar.

VZV [3] = assay: Skin organ culture topical Assay 3: vehicle comparison; format: cell-based, varicella-zoster virus
Procedure: as §1
This assay compared two vehicles, 1% DMSO and 10% hydroxypropyl-β-cyclodextrin (HPBCD) in carbopol gel, and 0.5% N-MCT in either vehicle. Refer to Assay #3 in Table 4 above. Each group was treated on Days 1-4 and scanned on Day 5, which is the typical assay protocol. The skin specimens were then cultured without drug or vehicle for another 6 days (scans on Day 7 and Day 11) to observe virus rebound. VZV yield was reduced in both Vehicle groups during the treatment phase, and then rebounded. This was likely due to the effects of the slightly acidic carbopol gel. There was little difference between the two vehicles. […] Importantly, there was no rebound in the groups treated with N-MCT. In fact, VZV yield continued to decrease after the treatment stopped.

VZV [4] = assay: Skin organ culture Assays 4 and 5: topical ointment vehicles; format: cell-based, varicella-zoster virus
From the text: Another objective of the invention was to test N-MCT at 0.5% in a variety of topical formulations in the SOC assay. The purpose was to determine the optimal topical formulation for N-MCT in full-thickness human skin. Human fetal skin was purchased from ABR and delivered by overnight courier on wet ice. The tissue was cleaned, disinfected in betadine and 70% ethanol, then cut into pieces approximately 1-cm^2. Each piece was inoculated with VZV-BAC-Luc strain that expresses firefly luciferase. Approximately 3 hours after inoculation, the pieces of skin were placed in NetWells above tissue culture medium and incubated overnight. The next day (Day 1) each piece of skin was soaked in D-luciferin for 45 min, and then scanned in the IVIS-50 instrument to measure Total Flux, which is a correlate of VZV pfu. The negative control group was not treated with drug or vehicle. The positive control drug treatment began on Day 1 by placing the skin, in NetWells, over medium containing 0.1 μg/mL N-MCT (see Table 5 below). The ointments were formulated with N-MCT by adding dry powder to the vehicle on a glass slab, then mixing thoroughly with a metal spatula. The ointments were warmed to 37° C. before spreading on the skin pieces with a Dacron swab. […] The virus yield in each piece of skin was calculated by dividing the Total Flux measured on Day 5 by Day […]

`Cc1cn([C@]23C[C@H](O)[C@@H](CO)[C@@H]2C3)c(=O)[nH]c1=O` [N-MCT, N-methanocarbathymidine] was tested, and the “VZV spread in mouse model, effectiveness” value (VZV [1]; 5-100 mg/kg/day p.o. BID) was “prevents VZV spread; also recorded: effective”, the “VZV yield and growth rates compared to vehicle” value (VZV [1]; all doses, N-MCT 5-100 mg/kg/day BID, p<0.0001, ANOVA and Dunnett) was “significantly reduced” and the “doses more effective than control antiviral compounds (PAA, PFA, cidofovir)” value (VZV [1]; mouse model of virus replication) was > 10 mg/kg/day. The optimal dose (VZV [1]; p.o. BID, SCID-Hu mice) was “approximately 20 mg/kg/day”, the “VZV yield, treatment on Days 3-6” value (VZV [2]; 0.5% N-MCT QD 3-6 dpi, by Day 7) was “reduced to a similar low level” and the “VZV yield, treatment begun on Day 5” value (VZV [2]; 0.5% N-MCT QD 5-8 dpi) was “decreased sharply”. The “VZV rebound after treatment on Days 1-4” value (VZV [2]; 0.5% N-MCT in carbopol with 10% HPBCD) was “no rebound was observed”, the “VZV yield, treatment on Days 1-4” value (VZV [2]; 0.5% in carbopol QD 1-4 dpi, during and after treatment) was “equally reduced” and the “effectiveness as topical treatment when VZV infection established for 3-5 days” value (VZV [2]; skin organ culture) was “highly effective”. For the same compound, the VZV yield (VZV [3]; 0.5% N-MCT in 1% DMSO or 10% HPBCD carbopol gel, Days 1-4) was “substantial decrease”, the “cyclodextrin preparation compared with DMSO prep” value (VZV [3]; 0.5% N-MCT in 10% HPBCD vs 1% DMSO carbopol) was “slightly more effective” and the “VZV rebound after treatment stopped” value (VZV [3]; scans on Day 7 and Day 11, no drug after Day 5) was “no rebound”. The “effectiveness as topical formulation in SOC model” value (VZV [4]; 0.5% N-MCT in ointments, daily, scan Day 5) was “highly effective” and the “virus yield on Day 10 after treatment stopped, fold less” value (VZV [4]; no treatment after Day 5, groups treated with N-MCT) was 100 fold.
